Measurements reported in patent EP0947515A1, “NOVEL NAPHTHYRIDINE DERIVATIVES” (SUMITOMO PHARMACEUTICALS COMPANY, LIMITED, priority 1996, dated 1998).

Key:
ACAT [1] = test: Assay of ACAT inhibitory activity in a specimen prepared from rabbit liver; type: biochemical, New Zealand white rabbit; conditions: enzyme specimen from liver of cholesterol-fed rabbit, [1-14C]oleoyl-CoA and endogenous cholesterol, 0.1 µM
Experimental: 1. Assay of ACAT inhibitory activity in a specimen prepared from rabbit liver
An enzyme specimen ACAT was prepared according to the method disclosed in the literature: J. Lipid. Research, 30, 681-690, 1989, from the liver of New Zealand white rabbit, which had been fed with 1 % cholesterol feed for one month. The ACAT activity was determined according to the method disclosed in the literature: J. Lipid Research, 24, 1127-1134, 1983, i.e., using radioactive [1-14C]oleoyl-CoA and endogenous cholesterol contained in the liver microsome, and calculated from the radioactivity of the labeled cholesterol oleate.

ACAT [2] = target: T1, ACAT (Rattus norvegicus, UniProt O70536); test: Assay of ACAT inhibitory activity in the macrophage derived from rat peritoneal; type: cell-based; conditions: 10^-7 M, radioactive oleic acid and exogenous cholesterol in liposome, read-out: ACAT inhibitory rate (%) 10^-7 M
T1 construct: The rat peritoneal-derived macrophage was prepared; endogenous in cells; host or cells: rat peritoneal macrophages (primary)
T1 sequence (O70536 1-545): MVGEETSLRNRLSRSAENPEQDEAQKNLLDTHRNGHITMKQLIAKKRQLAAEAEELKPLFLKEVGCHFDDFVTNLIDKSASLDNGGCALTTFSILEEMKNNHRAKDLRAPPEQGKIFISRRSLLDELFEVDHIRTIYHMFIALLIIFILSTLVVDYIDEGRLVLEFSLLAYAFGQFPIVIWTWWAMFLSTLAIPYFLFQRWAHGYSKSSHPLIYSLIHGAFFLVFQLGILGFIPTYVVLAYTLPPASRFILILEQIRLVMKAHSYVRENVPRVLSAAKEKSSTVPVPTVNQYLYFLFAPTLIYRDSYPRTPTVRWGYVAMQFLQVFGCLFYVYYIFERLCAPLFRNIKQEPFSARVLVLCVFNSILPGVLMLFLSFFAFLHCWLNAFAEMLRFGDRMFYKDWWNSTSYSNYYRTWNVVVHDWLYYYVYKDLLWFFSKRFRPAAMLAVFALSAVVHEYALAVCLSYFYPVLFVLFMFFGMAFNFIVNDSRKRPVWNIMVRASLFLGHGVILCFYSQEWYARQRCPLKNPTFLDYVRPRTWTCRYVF
Experimental: 2. Assay of ACAT inhibitory activity in the macrophage derived from rat peritoneal
The rat peritoneal-derived macrophage was prepared according to the method disclosed in the literature: Biochimica et Biophysica Acta, 1126, 73-80, 1992. The ACAT activity was determined by a modified method of the method disclosed in the above literature: Biochimica et Biophysica Acta, 1126, 73-80, 1992, i.e., using radioactive [9, 10-H]oleic acid and exogenous cholesterol contained in the liposome which was reconstituted according to the method disclosed in the literature: Biochimica et Biophysica Acta, 1213, 127-134, 1994, and calculated from the radioactivity of the labeled cholesterolyl oleate.

inhibition at 0.1 µM (ACAT [2]): 96%
SMILES: CCCCn1c(=O)c(NC(=O)Nc2c(C(C)C)cccc2C(C)C)c(-c2cccc(C#CCN3CCCC3)c2)c2cccnc21 [Example 90, N-[1-butyl-4-[3-{3-(1-pyrrolidinyl)-1-propynyl)phenyl}-1,2-dihydro-2-oxo-1,8-naphthyridin-3-yl)-N'-(2,6-diisopropylphenyl)urea]
ACAT inhibitory rate (%) 10^-7 M (ACAT [1]): 39%
